In brackets after ≈: the same amount, converted by molar mass. Like-named read-outs stand apart in the source and are kept apart here.
Legend:
Format in all cases: cell-based
[1] = test system: Streptococcus spp. and L. monocytogenes; assay: Broth microdilution MIC assay, Streptococcus spp. and L. monocytogenes; details: all Streptococcus spp., compared with Staphylococcus spp. and Enterococcus spp.
Description: (§1) This example illustrates evaluating in vitro activity of (Z)-2-(3,6-dimethylhepta-2,5-dien-1-yl)-5-pentylbenzene-1,3-diol (Example 1, “M194”) against gram-positive and gram-negative bacteria. In this study, in vitro activity was determined against a diverse panel of Gram-positive and Gram-negative bacteria associated with a variety of infections. Broth microdilution MIC assays were conducted following guidelines recommended by the Clinical and Laboratory Standards Institute (CLSI; 1-3).
(§2) The compound M194 was provided in powder form and initially stored at room temperature prior to testing. A stock solution of M194 in DMSO/DMSO solvent/diluent was made at 101× the final testing concentration and tested over ranges of 0.06-64 μg/mL.
(§3) Test organisms consisted of isolates from the American Type Culture Collection (ATCC; Manassas, VA) and the Micromyx Repository (MMX; Kalamazoo, MI). Upon initial receipt at Microbiologics, the organisms were sub-cultured onto an appropriate agar medium and incubated under atmospheric conditions required for growth. Following incubation for 18 to 24 hr at 35° C. in the appropriate atmosphere, colonies were harvested from these plates and cell suspensions were prepared and frozen at −80° C. with a cryoprotectant. Prior to testing, isolates were streaked from frozen vials onto the appropriate agar. […]

Citrobacter freundii = assay: Broth microdilution MIC assay, Citrobacter freundii; details: type —
Description: as §1, §2, §3

Listeria monocytogenes = assay: Broth microdilution MIC assay, Listeria monocytogenes; details: type —
Description: as §1, §2, §3

Enterobacterales = assay: Broth microdilution MIC assay, Enterobacterales; details: any of the Enterobacterales
Description: as §1, §2, §3

Staphylococcus aureus = assay: Broth microdilution MIC assay, Staphylococcus aureus
Description: as §1, §2
(§4) Test organisms consisted of isolates from the American Type Culture Collection (ATCC; Manassas, VA) and the Micromyx Repository (MMX; Kalamazoo, MI). Upon initial receipt at Microbiologics, the organisms were sub-cultured onto an appropriate agar medium and incubated under atmospheric conditions required for growth. Following incubation for 18 to 24 hr at 35° C. in the appropriate atmosphere, colonies were harvested from these plates and cell suspensions were prepared and frozen at −80° C. with a cryoprotectant. Prior to testing, isolates were streaked from frozen vials onto the appropriate agar. Unless otherwise noted, Trypticase Soy Agar with 5% sheep blood (Remel; Lenexa, KS; Lot No. 693244) was used and inoculated plates were incubated at 35° C. overnight in ambient atmosphere. Haemophilus influenzae isolates were streaked onto Chocolate agar (Becton Dickinson [BD]; Sparks, MD; Lot No. 3157581). Streptococcus spp., Moraxella spp., and H. influenzae inoculated plates were incubated at 35° C. overnight in 5% CO2.
(§5) Organisms were tested in the appropriate media according to CLSI guidelines (1-3). Cation-Adjusted Mueller Hinton broth (CAMHB) was made by supplementing Mueller Hinton Broth (MHB; BD; Lot No. 1285575) to a final concentration of 20 mg/L Ca++ (Sigma; St. Louis, MO; Lot. No. 084K0215) and 12.5 mg/L Mg++ (VWR; Radnor, PA; Lot. No. 22C0856290). CAMHB was used for broth microdilution testing except for isolates requiring specialized media as described below.
(§6) The MIC assay method followed the procedures described by CLSI and employed automated liquid handlers to conduct serial dilutions and liquid transfers. Automated liquid handlers included the Multidrop Combi (ThermoScientific), Biomek 3000, and Biomek FX (Beckman Coulter; Fullerton, CA).
(§7) The wells in columns 2 through 12 in standard 96-well microdilution plates (Costar 3795) were filled with 150 μl of the appropriate diluent. These would become the “mother plates” from which “daughter,” or test plates, would be prepared. […]

Enterobacter cloacae = assay: Broth microdilution MIC assay, Enterobacter cloacae; details: type —
Description: as §1, §2, §3

[2] = test system: Staphylococcus spp. and Enterococcus spp.; assay: Broth microdilution MIC assay, Staphylococcus spp. and Enterococcus spp.; details: all Staphylococcus spp.
Description: as §1, §2, §3

Acinetobacter baumannii = assay: Broth microdilution MIC assay, Acinetobacter baumannii
Description: as §1, §2, §4
(§8) Organisms were tested in the appropriate media according to CLSI guidelines (1-3). […]

Pseudomonas aeruginosa = assay: Broth microdilution MIC assay, Pseudomonas aeruginosa; details: for MIC: Pseudomonas aeruginosa
Description: as §1, §2, §4, §8

Haemophilus influenzae = assay: Broth microdilution MIC assay, Haemophilus influenzae; details: for MIC: Haemophilus influenzae
Description: as §1, §2, §4, §8

Escherichia coli = assay: Broth microdilution MIC assay, Escherichia coli
Description: as §1, §2, §4, §8

Streptococcus pyogenes = assay: Broth microdilution MIC assay, Streptococcus pyogenes
Description: as §1, §2, §3

[3] = test system: Staphylococcus epidermidis; assay: Broth microdilution MIC assay, Staphylococcus epidermidis
Description: as §1, §2, §3

Enterococcus faecium = assay: Broth microdilution MIC assay, Enterococcus faecium
Description: as §1, §2, §3

Streptococcus mutans = assay: Broth microdilution MIC assay, Streptococcus mutans; details: type —
Description: as §1, §2, §3

Proteus mirabilis = assay: Broth microdilution MIC assay, Proteus mirabilis; details: type —
Description: as §1, §2, §3

Enterococcus faecalis = assay: Broth microdilution MIC assay, Enterococcus faecalis
Description: as §1, §2, §4, §5, §6, §7

Neisseria gonorrhoeae = assay: Broth microdilution MIC assay, Neisseria gonorrhoeae
Description: as §1, §2, §3

[4] = test system: Staphylococcus saprophyticus; assay: Broth microdilution MIC assay, Staphylococcus saprophyticus; details: type MSS
Description: as §1, §2, §3

Streptococcus agalactiae = assay: Broth microdilution MIC assay, Streptococcus agalactiae
Description: as §1, §2, §3

Serratia marcescens = assay: Broth microdilution MIC assay, Serratia marcescens; details: type —
Description: as §1, §2, §3

[5] = test system: Streptococcus constellatus; assay: Broth microdilution MIC assay, Streptococcus constellatus; details: type —
Description: as §1, §2, §3

Klebsiella pneumoniae = assay: Broth microdilution MIC assay, Klebsiella pneumoniae
Description: as §1, §2, §3

Streptococcus oralis = assay: Broth microdilution MIC assay, Streptococcus oralis; details: type ERYR
Description: as §1, §2, §3

Moraxella catarrhalis = assay: Broth microdilution MIC assay, Moraxella catarrhalis
Description: as §1, §2, §3

Structure (SMILES): CCCCCc1cc(O)c(C/C=C(/C)CC=C(C)C)c(O)c1 [Example M194, (Z)-2-(3,6-dimethylhepta-2,5-dien-1-yl)-5-pentylbenzene-1,3-diol]
- in vitro activity (in words) [1]: to a lesser degree
- MIC (Citrobacter freundii): > 64 µg/mL
- MIC (Listeria monocytogenes): 32 µg/mL (≈ 106 µM)
- in vitro activity (in words) (Enterobacterales): not active
- MIC (Staphylococcus aureus; MRSA, type MRSA, read-out: MIC): 1 µg/mL (≈ 3.31 µM)
- MIC (Staphylococcus aureus; MSSA, type MSSA, QC, read-out: MIC): 2 µg/mL (≈ 6.61 µM)
- MIC (Staphylococcus aureus; MSSA, type MSSA, read-out: MIC): 1 µg/mL (≈ 3.31 µM)
- MIC (Staphylococcus aureus; VISA, type VISA): 2 µg/mL (≈ 6.61 µM)
- MIC (Enterobacter cloacae): > 64 µg/mL
- in vitro activity (in words) [2]: had activity
- in vitro activity (in words) (Acinetobacter baumannii): not active
- MIC (Acinetobacter baumannii; type MDR): >64 µg/mL
- MIC (Acinetobacter baumannii; type —, read-out: MIC): > 64 µg/mL
- in vitro activity (in words) (Pseudomonas aeruginosa; P. aeruginosa): not active
- MIC (Pseudomonas aeruginosa; type MDR, VIM): >64 µg/mL
- MIC (Pseudomonas aeruginosa; type QC, read-out: MIC): > 64 µg/mL
- MIC (Haemophilus influenzae; ATCC49247, type QC (ATCC 49247 isolate)): 4 µg/mL (≈ 13.2 µM)
- in vitro activity (in words) (Haemophilus influenzae; H. influenzae): had activity
- MIC (Haemophilus influenzae; type BL+ (beta-lactamase positive isolate MMX 7988)): 32 µg/mL (≈ 106 µM)
- MIC (Escherichia coli; type ESBL): >64 µg/mL
- MIC (Escherichia coli; type NDM-1): >64 µg/mL
- MIC (Escherichia coli; type QC, read-out: MIC): > 64 µg/mL
- MIC (Streptococcus pyogenes; type ERYR): 16 µg/mL (≈ 52.9 µM)
- MIC (Streptococcus pyogenes; type —, read-out: MIC): 16 µg/mL (≈ 52.9 µM)
- MIC ([3]; type MRSE): 1 µg/mL (≈ 3.31 µM)
- MIC ([3]; type MSSE): 1 µg/mL (≈ 3.31 µM)
- MIC (Enterococcus faecium; type vanA): 1 µg/mL (≈ 3.31 µM)
- MIC (Enterococcus faecium; type —, read-out: MIC): 1 µg/mL (≈ 3.31 µM)
- MIC (Streptococcus mutans): 32 µg/mL (≈ 106 µM)
- MIC (Proteus mirabilis): > 64 µg/mL
- MIC (Enterococcus faecalis; type VSE, QC, read-out: MIC): 2 µg/mL (≈ 6.61 µM)
- MIC (Enterococcus faecalis; type VSE, read-out: MIC): 1 µg/mL (≈ 3.31 µM)
- MIC (Enterococcus faecalis; type vanA): 1 µg/mL (≈ 3.31 µM)
- MIC (Enterococcus faecalis; type vanB): 1 µg/mL (≈ 3.31 µM)
- in vitro activity (in words) (Neisseria gonorrhoeae; N. gonorrhoeae): had activity
- MIC (Neisseria gonorrhoeae; Neisseria gonorrhoeae, type QC): 1 µg/mL (≈ 3.31 µM)
- MIC [4]: 2 µg/mL (≈ 6.61 µM)
- MIC (Streptococcus agalactiae; type MLS): 16 µg/mL (≈ 52.9 µM)
- MIC (Streptococcus agalactiae; type —, read-out: MIC): 16 µg/mL (≈ 52.9 µM)
- MIC (Serratia marcescens): > 64 µg/mL
- MIC [5]: 16 µg/mL (≈ 52.9 µM)
- MIC (Klebsiella pneumoniae; type QC, read-out: MIC): > 64 µg/mL
- MIC (Klebsiella pneumoniae; type —): >64 µg/mL
- MIC (Streptococcus oralis): 32 µg/mL (≈ 106 µM)
- in vitro activity (in words) (Moraxella catarrhalis): had activity
- MIC (Moraxella catarrhalis; type BL+): 2 µg/mL (≈ 6.61 µM)
